# In article PMC9374667 (Communications Biology, 2022):
# Where “and” joins values, the source holds several entries; their conditions need not be identical. Identical values can stand only once.
# Legend:
# Ikbke = assay: RT-qPCR of Ikbke in eWAT and BAT; type: in vivo; settings: db/db mice, both doses of BJ
# Text: Total RNA was isolated from 3T3-L1 cells and adipose tissue homogenates using Trizol reagent (Invitrogen, Carlsbad, CA, USA). RNA concentration and purity were examined at 260/280 nm using a nanodrop spectrophotometer (NanoDrop One, Thermo Fisher Scientific, USA). The total RNA was reverse transcribed to cDNA using the EasyScript All-in-One First-Strand cDNA Synthesis SuperMix for qPCR kit (TransGen Biotech, Beijing, China). The quantitative reverse transcription polymerase chain reaction was performed using TransStart Top Green qPCR SuperMix (TransGen Biotech, Beijing, China) and an Applied Biosystems 7500 RealTime PCR System (Life Technologies, USA). Relative expression levels were normalized to gapdh expression and quantified using the 2^-ΔΔCt method. The primers were synthesized by Shanghai Sangon Biotech, and the detailed primer sequences were shown in Supplementary Table 5 in the supplementary materials.
# IKKε [1] = molecular target: T1, IKKε (Mus musculus, UniProt Q9R0T8); assay: IKKε activity assay in eWAT; type: in vivo, mice; parameters: The adipose tissue was ultrasound-crushed in PBS buffer solution (1:9 w/v) to prepare the tissue homogenate; from tissue; host or cells: epididymal white adipose tissue (eWAT) and brown adipose tissue (BAT) of C57BLKS WT and db/db mice; settings: for the expression of IKKε in eWAT of db/db mice: Figure 6b, individual values
# T1 sequence (Q9R0T8 1-717): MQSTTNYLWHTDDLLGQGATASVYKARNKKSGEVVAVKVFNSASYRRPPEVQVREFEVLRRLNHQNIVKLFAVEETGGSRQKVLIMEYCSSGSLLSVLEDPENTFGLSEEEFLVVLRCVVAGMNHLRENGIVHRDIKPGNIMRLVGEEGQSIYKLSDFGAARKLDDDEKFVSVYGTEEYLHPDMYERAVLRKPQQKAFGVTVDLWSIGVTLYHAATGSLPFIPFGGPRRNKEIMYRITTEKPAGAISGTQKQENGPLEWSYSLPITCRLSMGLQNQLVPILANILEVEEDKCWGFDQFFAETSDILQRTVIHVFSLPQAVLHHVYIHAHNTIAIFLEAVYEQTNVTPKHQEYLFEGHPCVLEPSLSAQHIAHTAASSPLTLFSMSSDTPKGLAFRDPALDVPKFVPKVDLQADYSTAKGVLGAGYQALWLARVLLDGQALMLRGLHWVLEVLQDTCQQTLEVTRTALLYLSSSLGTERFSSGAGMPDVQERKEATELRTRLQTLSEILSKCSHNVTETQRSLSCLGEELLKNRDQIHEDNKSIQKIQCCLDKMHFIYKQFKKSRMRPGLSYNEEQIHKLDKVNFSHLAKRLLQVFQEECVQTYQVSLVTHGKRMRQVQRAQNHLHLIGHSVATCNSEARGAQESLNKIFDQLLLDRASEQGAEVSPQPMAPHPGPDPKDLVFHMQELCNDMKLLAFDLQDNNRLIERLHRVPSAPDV
# Procedure: (§1) The adipose tissue was ultrasound-crushed in PBS buffer solution (1:9 w/v) to prepare the tissue homogenate. The tissue homogenate was centrifuged at 5000 × g for 10 min, and the supernatant was taken for detection. Briefly, samples or standards were added to the microplates pre-coated with IKKε antibody or TBK1 antibody. Then horseradish peroxidase (HRP) labeled antibody was added and incubated at 37 °C for 60 min. After thorough washing, the 3,3′,5,5′-tetramethylbenzidine (TMB) substrate was used for color development, and the absorbance (OD value) was determined at 450 nm.
# IKKε [2] = molecular target: T1, IKKε; assay: IKKε activity assay in BAT; type: in vivo, mice; parameters: The adipose tissue was ultrasound-crushed in PBS buffer solution (1:9 w/v) to prepare the tissue homogenate; from tissue; host or cells: epididymal white adipose tissue (eWAT) and brown adipose tissue (BAT) of C57BLKS WT and db/db mice; settings: for the expression of IKKε in BAT of db/db mice: Figure 6l, individual values
# Procedure: as §1
smiles,measurement,setting,value
"CC(C)Cc1ccc(C(C)C(=O)[O-])cc1.COc1ccc2cc3[n+](cc2c1OC)CCc1cc2c(cc1-3)OCO2.O.O.O.O [BJ, berberine-ibuprofen]",Ikbke mRNA expression in BAT,Ikbke,had no effect
same,mRNA level of IKKε (Ikbke) in eWAT,Ikbke,significantly reduced
same,the expression of IKKε in eWAT of db/db mice,IKKε [1]; db/db+BJ 75mg/kg,0.731 U/g and 0.653 U/g and 0.634 U/g and 0.668 U/g and 0.673 U/g and 0.708 U/g
same,the expression of IKKε in eWAT of db/db mice,IKKε [1]; db/db+BJ 150mg/kg,0.443 U/g and 0.517 U/g and 0.416 U/g and 0.438 U/g and 0.466 U/g and 0.49 U/g
same,IKKε kinase activity in eWAT,"IKKε [1]; db/db mice, both doses of BJ (75 and 150 mg/kg)",significantly reduced
same,the expression of IKKε in BAT of db/db mice,IKKε [2]; db/db+BJ 75mg/kg,0.441 U/g and 0.458 U/g and 0.427 U/g and 0.409 U/g and 0.371 U/g and 0.436 U/g
same,the expression of IKKε in BAT of db/db mice,IKKε [2]; db/db+BJ 150mg/kg,0.429 U/g and 0.4 U/g and 0.314 U/g and 0.335 U/g and 0.348 U/g and 0.398 U/g
same,IKKε activity and expression levels in BAT,"IKKε [2]; db/db mice, both doses of BJ",had no effect
